What was measured:
Assay type in all cases: in vivo
[1] = system: IL10−/− knockout mouse colitis model; assay: Example 2: efficacy in mouse IL10−/− knockout colitis model; conditions: 21 days
Protocol: The following study was conducted to evaluate the efficacy of an α4β7 integrin small molecule inhibitor relative to no treatment and to an IL-12/IL-23 inhibitor (anti-p40 antibody a murine surrogate of ustekinumab). […] Endpoint analysis included measurement of colon lamina propria lymphocytes, and histology scoring of the colon tissue.
Mice were treated for three (3) weeks with Formula (III) mixed with food chow (0.125%), and 4 mg/kg anti-p40 dosed intraperitoneally every four (4) days […].
(§1) Female IL-10 deficient C57CL/6 mice (aged 12 weeks at study inception) were used in this study. All animal experiments were conducted according to Swiss animal well fare law and approved by the local animal welfare authority of Zurich County (Tierversuchskommission Zürich, Zurich, Switzerland, License No. ZH256-2014).
Mice were administered either standard chow diet (Harlan Teklad Global Diets 2014, TD2014) or standard chow diet plus 0.125% of in chow. Formula (III) schedule was ad libitum while the Anti-p40 antibody was administered via intraperitoneal injection on day 1 and then every four days for three weeks.
The compound was added and mixed into the chow powder at 0.125% concentration, anti-p40 antibody was diluted in phosphate buffered saline (2 mg/mL) (anti-p40 antibody, a murine surrogate of ustekinumab) then dosed at 4 mg/kg every four days by intraperitoneal injection. […] The mice were then treated for three (3) weeks (21-days). On Day 21, mice were sacrificed, blood and tissue samples were collected for further analysis. While untreated IL-10−/− knockout mice progressively lost body weight and manifested colitis activity (measured by weight loss, stool frequency and stool consistency).
Mice were anesthetized with and mixture of ketamine (90-120 mg/kg-1 body weight, Vétoquinol, Bern, Switzerland) and Xylazine (8 mg/kg-1 body weight, Bayer, Lyssach, Switzerland) by intraperitoneal injection. Colonoscopies were performed as described in Becker C, Fantini M C, Neurath M F. High resolution colonoscopy in live mice. Nat. Protoc, 2006; 1:2900-4. The procedure was recorded with a Karl Storz Tele Pack Pal 20,043,020 (Karl Storz Endoskope, Tuttlingen, Germany). Scoring of the colonoscopy was done in accordance with the Murine Endoscopic Index of Colitis Severity (MEICS) scoring system as described in Becker C., Fantini M. C., Neurath M. F. High resolution colonoscopy in live mice. Nat. Protoc. 2006; 1:2900-2904. doi: 10.1038/nprot.2006.446. The following five (5) parameters were assessed: (1) transparency of the colon; (2) changes of the vascular pattern; (3) fibrin visible; (4) granularity of the mucosal surface; and (5) stool consistency.
Tissue Extraction: Mouse colons were extracted and fixed in 4% formalin, embedded in paraffin and then cut into 5-μm sections. The colon sections where then deparaffinized and stained with hematoxylin and eosin.
Mouse colons were extracted and opened up in a longitudinal orientation, placed in a 15 mL falcon tube, rinsed with PBS (Gibco, Thermo Fisher Scientific, Carlsbad, CA, USA). The colon was then cut into 2 mm^2 sized samples and washed with 2% FBS HBSS (Thermo Fisher Scientific). The supernatant was discarded, resuspended in HBSS supplemented with 2 mM EDTA (Thermo Fisher Scientific) and then incubated at 37° C. on a shaker (300 rpm) for 15 minutes. Upon completion of the incubation the tubes were vigorously shaken, the supernatant was carefully discarded, and the sample was washed with HBSS. Next, the samples were resuspended in a digestion buffer consisting of Dispase (0.6 mg/mL, Gibco) supplemented Collagenase IV (0.4 mg/mL; Clostridium Histolyticum, Sigma-Aldrich). The solution was incubated for 20 minutes on a 37° C. shaker (300 rpm). Upon completion, the samples were homogenized by passing the solution through a 18+1.5-gauge needle. Samples where then stained with TH1, TH17, Neutrophils, and Treg antibodies followed by preforming Flow cytometry analysis of the mice immune cells of the colon tissue. […]

[2] = system: IL-10−/− mouse colitis model; assay: Example 3: Formula (III) and anti-p40 combination in IL-10−/− mouse colitis model; conditions: 21 days; Formula (III) 0.005% in chow, anti-p40 IP; vs no treatment control / either pathway alone
Protocol: The following experiments were run to evaluate the effects of a combination treatment of Formula (III) in combination with an anti-p40 antibody on the IL-10−/− mouse colitis model compared to the single treatment alone.
as §1
Mice were administered either standard chow diet (Harlan Teklad Global Diets 2014, TD2014) or standard chow diet plus 0.005% of Formula (III) in the chow. Formula (III)'s schedule was ad libitum while the anti-p40 antibody was administered via an intraperitoneal injection on day 1 and then every four days for three weeks.
The compound was added and mixed to the chow powder at 0.125% concentration, anti-p40 antibody was diluted in phosphate buffered saline (2 mg/mL) (anti-p40 antibody is a murine surrogate of ustekinumab) then dosed at either 2 mg/kg (low dose) or 4 mg/kg (high dose) every four days by intraperitoneal injection. […] The mice were then treated for three (3) weeks (21-days). On Day 21, mice were sacrificed, blood and tissue samples were collected for further analysis.
Experiments were conducted as describe in Experiment 2.

[3] = First-in-human Part B: plasma PK after once-daily dosing of Formula (III) for 14 days
From the text: Part B (MAD Cohorts 6-10) consisted of up to 5 randomized, blinded (Sponsor-unblinded), placebo-controlled, MAD cohorts. Within each cohort 12 unique subjects were randomized 3:1 to receive blinded Formula (III) (N=9) or PTM Formula (III) (N=3). All subjects within each cohort received Formula (III) at the same dosing frequency.
Subjects enrolled in Part B received either blinded Formula (III) or PTM Formula (III) twice daily or once daily for 14 days. All subjects within each cohort received study drug at the same dosing frequency.
All study drugs in Part B (except Cohort 10 which will be administered under fasting conditions) were administered in the morning and evening following a standard meal (twice daily dosing), or only in the morning (daily dosing) following a standard meal except for Cohort 10.
Concentrations of Formula (III) and the metabolite, in plasma samples were determined using fully validated high-performance liquid chromatography-tandem mass spectrometry (LC-MS/MS) bioanalytical methods. All samples were analyzed in the timeframe supported by frozen stability storage data. The assays for Formula (III), and the metabolite were performed using methods validated by QPS, LLC (Newark, DE, USA).

Q: For `CCOC(=O)[C@H](Cc1ccc(-n2c(=O)c3ccncc3n(C)c2=O)c2ncccc12)NC(=O)c1c(C)cc(N2CCOC[C@@H]2C(F)(F)F)cc1F` (atropisomer, axis not shown) [Formula (III)], which “disease activity (weight loss, stool frequency, stool consistency)” value ([1]; 0.125% in chow ad libitum) is on record?
A: Its value is “reduced disease activity”.

Q: And the body weight loss ([1]; 0.125% in chow ad libitum, vs untreated IL-10−/− mice)?
A: The body weight loss was “ameliorated body weight loss”.

Q: And the “TH1 cells in colon tissue (flow cytometry)” value ([1]; 0.125% in chow)?
A: Its value is “significantly reduced”.

Q: And the “TH17 cells in colon tissue (flow cytometry)” value ([1]; 0.125% in chow)?
A: Its value is “significantly reduced”.

Q: What about the “frequency of the Treg in colon tissue (flow cytometry)” value ([1]; 0.125% in chow) of the same compound?
A: Its value is “without affecting”.

Q: And the “neutrophils in colon tissue (flow cytometry)” value ([1]; 0.125% in chow)?
A: The value was “significantly reduced”.

Q: What about the histopathology score ([1]; 0.125% in chow, compared to the non-treatment group) of the same compound?
A: The histopathology score was “reduced histopathology score”.

Q: And the “colonoscopy score (MEICS)” value ([1]; 0.125% in chow, over the non-treatment group)?
A: The value was “significantly improved”.

Q: What about the “proinflammatory cytokines detected in the blood” value [1] of the same compound?
A: The value was “reduced proinflammatory cytokines”.

Q: And the intestine inflammation ([1]; single agent)?
A: The intestine inflammation was “significantly ameliorates”.

Q: What about the body weight loss [2] of the same compound?
A: The body weight loss was “improved body weight loss”.

Q: And the “metabolite multiple-dose exposure, 200-mg tablet fasting versus 500-mg nonfasting capsule” value [3]?
A: The value was “slightly lower”.

— patent US20250228864A1, “THERAPIES FOR THE TREATMENT OF INFLAMMATORY BOWEL DISEASE” (Gilead Sciences, Inc., priority 2023, published 2025)
